Assay results reported in patent EP0530994A1, “Quinazoline derivatives as inhibitors of HIV reverse transcriptase” (MERCK & CO. INC., priority 1991, dated 1993).
pIC50: −log10 of the molar value.

Biological target: T1, recombinant HIV reverse transcriptase (HIV RTR) (Human immunodeficiency virus type 1 group M subtype B, UniProt P03366)
T1 construct: recombinant HIV reverse transcriptase (HIV RTR)
Assay: Reverse transcriptase assay (incorporation of tritiated deoxyguanosine monophosphate into acid-precipitable cDNA)
Assay type: biochemical
Conditions: [³H] dGTP and poly r(C)·oligo d(G)12-18 each at about Km; 37°C for 45 minutes; read-out: IC₅₀ value
Experimental: The assay measures the incorporation of tritiated deoxyguanosine monophosphate by recombinant HIV reverse transcriptase (HIV RTR) (or other RT) into acid-precipitable cDNA at the Km values of dGTP and poly r(C)·oligo d(G)₁₂₋₁₈.
Thirty µL of a reaction mixture containing equal volumes of: 500 mM Tris·HCl (pH 8.2), 300 mM MgCl₂, 1200 mM KCl, 10 mM DTT, 400 µg/mL poly r(c)·oligo d(G) [prepared by dissolving 1.5 mg (25 U) poly r(C)·oligo d(G) in 1.5 ml sterile distilled H₂O and diluting to 400 µg/ml], 0.1 µCi/µl [³H] dGTP, 160 µM dGTP, was added to 10 µl sterile distilled H₂O, 2.5 µl of potential inhibitor and 10 µL of 5 nM purified HIV RTR in tubes. The mixture was incubated at 37°C for 45 minutes.
After incubation is complete, the tubes were cooled in ice for 5 minutes. Ice-cold 13% TCA containing 10 mM NaPPi (200 µl) is added and the mixture incubated on ice for 30 minutes. The precipitated cDNA is removed by filtration using presoaked glass filters [TCA, NaPPi]. […]
The filter discs are then counted in a scintillation counter.
Under these conditions [dGTP] and poly r(C)·oligo d(G)₁₂₋₁₈ each are approximately equal to the appropriate Km value. […] Calculated IC₅₀ values for the tested compounds of this invention vary from about 12 nM to more than 300 µM, with the most preferred compounds having values of between about 30 nM and about 60 µM. […]

`C#CC1(c2ccccc2)c2cc(Cl)ccc2NC(=O)N1C` (single isomer, unassigned; (+)) [(+) optical isomer of compound 4, 6-Chloro-3,4-dihydro-3-methyl-4-phenyl-4-ethynyl-2(1H)-quinazolinone] showed a pIC50 of ~10.22.
